Test results as given in patent US8592456B2 (4SC Discovery GmbH, priority 2011, dated 2013).
Where two headings read alike, the source gives them in different places.

Test system: PBMC (T cell proliferation)
Assay: T cell proliferation assay, PHA-stimulated human PBMC (BrdU ELISA)
Assay type: cell-based
Settings: 48 hours, BrdU
Method in brief: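 Healthy-donor human PBMC, Ficoll-isolated, seeded 1×10^5 cells/well in RPMI1640 with 10% dialyzed FCS, stimulated with 2 μg/ml PHA alongside test compound. Proliferation read after 48 hours by BrdU ELISA.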

[1] = human PBMC, 2 μg/ml PHA, read-out: D: IC50 (Tcell proliferation)
[2] = PHA-stimulated human PBMC, column D, activity classes 1-4, read-out: IC50 (Tcell proliferation)

Structure (SMILES)	IC50 [1] [nM]	IC50 [2] [nM]
CCOC(=O)c1c(-c2onc(-c3c(F)cccc3Cl)c2C(=O)OC)cnn1-c1ccc(Cl)cc1Cl [Example 6, methyl 3-(2-chloro-6-fluorophenyl)-5-(1-(2,4-dichlorophenyl)-5-(ethoxycarbonyl)-1H-pyrazol-4-yl)isoxazole-4-carboxylate]	1000 to 10000	–
COC(=O)c1c(-c2c(F)cccc2Cl)noc1-c1cnn(-c2ccccn2)c1C(F)(F)F [Example 84, methyl 3-(2-chloro-6-fluorophenyl)-5-(1-(pyridin-2-yl)-5-(trifluoromethyl)-1H-pyrazol-4-yl)isoxazole-4-carboxylate]	< 10	–
CN1CCN(C(=O)c2c(-c3c(F)cccc3Cl)noc2-c2cnn(-c3cccc(Cl)c3)c2C(F)(F)F)CC1 [Example B-34, (3-(2-chloro-6-fluorophenyl)-5-(1-(3-chlorophenyl)-5-(trifluoromethyl)-1H-pyrazol-4-yl)-isoxazol-4-yl)(4-methylpiperazin-1-yl)methanone]	100 to 1000	–
CCOC(=O)c1c(-c2c(Cl)cncc2Cl)noc1-c1cnn(-c2ccncc2)c1C(F)(F)F [Example B-10, ethyl 3-(3,5-dichloropyridin-4-yl)-5-(1-(pyridin-4-yl)-5-(trifluoromethyl)-1H-pyrazol-4-yl)isoxazole-4-carboxylate]	100 to 1000	–
O=C(c1c(-c2c(F)cccc2Cl)noc1-c1cnn(-c2ccncc2)c1C(F)(F)F)N1CCCO1 [Example B-57, (3-(2-chloro-6-fluorophenyl)-5-(1-(pyridin-4-yl)-5-(trifluoromethyl)-1H-pyrazol-4-yl)isoxazol-4-yl)(isoxazolidin-2-yl)methanone]	1000 to 10000	–
COC(=O)c1c(-c2c(F)cccc2Cl)noc1-c1cnn(-c2ccccc2)c1C(F)(F)F [Example 48, methyl 3-(2-chloro-6-fluorophenyl)-5-(1-phenyl-5-(trifluomethyl)1H-pyrazol-4-yl)isoxazole-4-carboxylate]	10 to 100	–
COC(=O)c1c(-c2ccc(Cl)cc2Cl)noc1-c1cnn(-c2cccc(Cl)c2)c1C(F)(F)F [Example B-76, methyl 5-(1-(3-chlorophenyl)-5-(trifluoromethyl)-1H-pyrazol-4-yl)-3-(2,4-dichlorophenyl)isoxazole-4-carboxylate]	100 to 1000	–
O=C(NCc1ccccc1C(F)(F)F)c1c(-c2c(F)cccc2Cl)noc1-c1cnn(-c2ccccc2F)c1C(F)(F)F [Example 23, 3-(2-chloro-6-fluorophenyl)-5-(1-(2-fluorophenyl)-5-(trifluoromethyl)-1H-pyrazol-4-yl)-N-(2-(trifluoromethyl)benzyl)isoxazole-4-carboxamide]	1000 to 10000	–
CCOC(=O)c1c(-c2c(F)cccc2Cl)noc1-c1cnn(-c2cccc(C(N)=O)c2)c1C(F)(F)F [Example B-100, ethyl 5-(1-(3-carbamoylphenyl)-5-(trifluoromethyl)-1H-pyrazol-4-yl)-3-(2-chloro-6-fluorophenyl)isoxazole-4-carboxylate]	1000 to 10000	–
COC(=O)c1c(-c2ccccc2)noc1-c1cnn(-c2cccc(F)c2)c1C(F)(F)F [Example 51, methyl 5-(1-(3-fluorophenyl)-5-(trifluoromethyl)-1H-pyrazol-4-yl)-3-phenylisoxazole-4-carboxylate]	1000 to 10000	–
CO/C(=N\c1c(-c2c(F)cccc2Cl)noc1-c1cnn(-c2cccc(F)c2)c1C(F)(F)F)C(F)(F)F [Example 136, (Z)-methyl N-(3-(2-chloro-6-fluorophenyl)-5-(1-(3-fluorophenyl)-5-(trifluoromethyl)-1H-pyrazol-4-yl)isoxazol-4-yl)-2,2,2-trifluoroacetimidate]	100 to 1000	–
Fc1cccc(-n2ncc(-c3onc(-c4c(F)cccc4Cl)c3-c3ccco3)c2C(F)(F)F)c1 [Example I-17, 3-(2-chloro-6-fluorophenyl)-5-(1-(3-fluorophenyl)-5-(trifluoromethyl)-1H-pyrazol-4-yl)-4-(furan-2-yl)isoxazole]	–	< 10
CC(C)OC(=O)c1c(-c2c(F)cccc2Cl)noc1-c1cnn(-c2ccncc2)c1C(F)(F)F [Example B-82, isopropyl 3-(2-chloro-6-fluorophenyl)-5-(1-(pyridin-4-yl)-5-(trifluoromethyl)-1H-pyrazol-4-yl)isoxazole-4-carboxylate]	10 to 100	–
CON(C)C(=O)c1c(-c2c(F)cccc2Cl)noc1-c1cnn(-c2cccnc2)c1C(F)(F)F [Example B-56, 3-(2-chloro-6-fluorophenyl)-N-methoxy-N-methyl-5-(1-(pyridin-3-yl)-5-(trifluoromethyl)-1H-pyrazol-4-yl)isoxazole-4-carboxamide]	1000 to 10000	–
COC(=O)c1c(-c2c(F)cccc2Cl)noc1-c1cnn(-c2cccc(Cl)c2)c1 [Example 115, methyl 3-(2-chloro-6-fluorophenyl)-5-(1-(3-chlorophenyl)-1H-pyrazol-4-yl)isoxazole-4-carboxylate]	1000 to 10000	–
CCOC(=O)c1csc(-c2c(-c3c(F)cccc3Cl)noc2-c2cnn(-c3cccc(F)c3)c2C(F)(F)F)n1 [IB-1, ethyl 2-{3-(2-chloro-6-fluorophenyl)-5-[1-(3-fluorophenyl)-5-(trifluoromethyl)-1H-pyrazol-4-yl]isoxazol-4-yl}-1,3-thiazole-4-carboxylate]	–	100 to 1000
Cc1nnc(-c2c(-c3c(F)cccc3Cl)noc2-c2cnn(-c3cccc(Cl)c3)c2C(F)(F)F)s1 [IB-3, 3-(2-chloro-6-fluorophenyl)-5-(1-(3-chlorophenyl)-5-(trifluoromethyl)-1H-pyrazol-4-yl)-4-(5-methyl-1,3,4-thiadiazol-2-yl)isoxazole]	–	< 10
Fc1ccccc1-n1ncc(-c2onc(-c3c(F)cccc3Cl)c2-c2nnco2)c1C(F)(F)F [Example I-15, 2-(3-(2-chloro-6-fluorophenyl)-5-(1-(2-fluorophenyl)-5-(trifluoromethyl)-1H-pyrazol-4-yl)isoxazol-4-yl)-1,3,4-oxadiazole]	–	100 to 1000
CCOC(=O)c1c(-c2c(F)cccc2Cl)noc1-c1cnn(-c2ccc(C#N)cc2)c1C(F)(F)F [Example B-40, ethyl 3-(2-chloro-6-fluorophenyl)-5-(1-(4-cyanophenyl)-5-(trifluoromethyl)-1H-pyrazol-4-yl)-isoxazole-4-carboxylate]	1000 to 10000	–
Cc1nnc(-c2c(-c3c(F)cccc3Cl)noc2-c2cnn(-c3ccccc3F)c2C(F)(F)F)s1 [Example I-12, 3-(2-chloro-6-fluorophenyl)-5-(1-(2-fluorophenyl)-5-(trifluoromethyl)-1H-pyrazol-4-yl)-4-(5-methyl-1,3,4-thiadiazol-2-yl)isoxazole]	–	100 to 1000
COc1cccc(Cl)c1-c1noc(-c2cnn(-c3ccccc3Cl)c2C(F)(F)F)c1-c1cnco1 [IB-34, 3-(2-chloro-6-methoxyphenyl)-5-(1-(2-chlorophenyl)-5-(trifluoromethyl)-1H-pyrazol-4-yl)-4-(oxazol-5-yl)isoxazole]	–	100 to 1000
Fc1cccc(Cl)c1-c1noc(-c2cnn(-c3cccnc3)c2C(F)(F)F)c1-c1nnco1 [IB-15, 2-(3-(2-chloro-6-fluorophenyl)-5-(1-(pyridin-3-yl)-5-(trifluoromethyl)-1H-pyrazol-4-yl)isoxazol-4-yl)-1,3,4-oxadiazole]	–	100 to 1000
COC(=O)c1c(-c2ccccc2F)noc1-c1cnn(-c2cccc(Cl)c2)c1C(F)(F)F [Example B-77, methyl 5-(1-(3-chlorophenyl)-5-(trifluoromethyl)-1H-pyrazol-4-yl)-3-(2-fluorophenyl)isoxazole-4-carboxylate]	10 to 100	–
